Source: patent US20240366649A1, “4-ETHYNYL-3-HYDROXY-TETRAHYDROFURANYL-ADENINE PHOSPHORAMIDATES AND RELATED COMPOUNDS AND THEIR USE IN TREATING MEDICAL CONDITIONS” (ROME THERAPEUTICS, INC., priority 2021, published 2024)
“And” between values parts separate entries of the source, which are not always exact repeats. Equal entries are not always repeated.

Columns and labels:
Type in all cases: cell-based
[1] = system: IFN production in THP1 TREX1 KO cells; assay: Cellular assay for altering IFN production in THP1 TREX1 KO cells; settings: for change in IFN levels (figure): FIG. 6-8, % induction versus compound concentration; for EC50 / IC50: Homo sapiens; for Concentration at Max Induct.: lowest concentration at which the maximum-fold IFN induction was observed; for Maximum IFN Induction: maximum-fold IFN induction, 1 μM 5-aza-2′-deoxycytidine; for IC50: inhibitors of IFN
Protocol: (§1) THP1-Dual™ KO-TREX1 cells were purchased from Invivogen (cat #thpd-kotrex). The THP1-Dual™ KO-TREX1 cells were cultured in RPMI 1640, 10% heat-inactivated fetal bovine serum, 25 mM HEPES, 10 μg/mL Blasticidin, and […] Zeocin. THP1-Dual™ KO-TREX cells were treated with a dose titration of test compound in the presence of 1 μM 5-aza-2′-deoxycytidine (Sigma, cat #189825). Type 1 Interferon and cell viability were assessed after five days of treatment.
Stock solution of test compound was prepared in DMSO followed by a three-fold dilution in DMSO. Additional 50× dilution was prepared in cell culture media for each dilution. 10 μL of diluted test compound was then added to a 384-well plate.
(§2) THP1-Dual™ KO-TREX1 cells were treated with 1 μM 5-aza-2′-deoxycytidine. THP1-Dual™ KO-TREX1 cells (50 μL) were added to each well of the 384-well plate containing test compound titration at 10,000 cells/well. Cells were incubated at 37° C., 5% CO2 in a humidified incubator for five days. On day five, 20 μL of cell supernatant was transferred to a 384-well, white-walled plate, followed by addition to each well of 50 μL of QUANTI-LUC solution containing stabilizer. Luminescence was detected on a plate reader according to manufacturer's instructions.
(§3) For certain compounds, the assay was run in a 96-well format, with the following modifications: • 190 μL, instead of 50 μL, of cells were added to each well, to provide 50,000 cells/well, instead of 10,000 cells/well, • Cells were incubated for 6 days, instead of 5 days, • 25 μL, instead of 20 μL, of cell supernatant was added to the white-walled plate for QUANT-LUC treatment; and • 25 μL, instead of 30 μL, of CellTiter-Glo was added to assess cell viability.
Percent inhibition of interferon was calculated using the following analysis: (Average DMSO-Sample)/(Average DMSO-Average 30 μM control reagent)*100. The control reagent for inhibition of interferon was a specific nucleoside reverse-transcriptase inhibitor with molecular weight <600 a.m.u. Percent induction of interferon was calculated using the following analysis: (Sample-Average DMSO)/(10 μM control reagent-Average DMSO)*100. The control reagent for induction of interferon was compound 8 (4′-ethynyl-2-chloro-2′-deoxyadenosine).

[2] = target: T1, LINE1 reverse transcriptase (Homo sapiens, UniProt O00370); assay: Transient artificial-intron Cis LINE1 reporter assay; parameters: expressed in transfected cells; settings: HEK 293 cells; ratio FLuc/RLuc reports LINE1 activity; tested up to 100 μM; read-out: IC50 for inhibiting FLuc luminescence
Protocol: Intron-disrupted Firefly luciferase (FLuc) expression cassettes were generated as described by Xie, Y. et al. “Characterization of L1 retrotransposition with high-throughput dual-luciferase assays,” Nucleic Acid Res. (2011) Vol. 39, No. 3, e16. In addition, the plasmid contained an intact Renilla luciferase (RLuc) expression cassette on the vector backbone, in order to normalize transfection efficiency and measure potential cell toxicity.
HEK 293 cells were seeded in 96-well plates at 1,000 cells/well in 55 μL and grown for 24 hours. Cells were transfected with FuGeneHD (Promega) following the manufacturer's protocol. Each well received 0.133 ng plasmid, 0.4 μL FuGeneHD reagent, and 4.5 μL GlutaMAX-I-supplemented Opti-MEM I reduced-serum medium (Invitrogen). Cells were simultaneously treated with test compound serially diluted starting at 100 μM in a 3-fold dilution dose response.
Luminescence was measured using the Dual-Glo Luciferase Assay System (Promega) following the manufacturer's instructions. The ratio between FLuc and RLuc gene expression was used to report LINE1 activity.

[3] = target: T1, LINE1 reverse transcriptase; assay: Stable artificial-intron Cis LINE1 reporter assay; parameters: expressed in transfected cells; settings: HeLa L1 artificial-intron reporter cells, doxycycline-induced, 72 h, Firefly luciferase activity
Excerpt: A stable HeLa Tet-On 3G (Takara, cat no 631183) cell line expressing a bi-directional inducible LINE1 construct was generated as described in Xie, Y. et al. “Cell division promotes efficient retrotransposition in a stable L1 reporter cell line,” Mobile DNA (2013) 4:10. Single cell clones were screened for high Luciferase expression and the highest expression Firefly expressing clone was chosen for compound testing.
Test compounds were serially diluted in DMSO and spotted in 96-well plates. Subsequently the HeLa L1 artificial-intron reporter cells were plated into the compound-containing wells (8,000 cells/well), and the cells were induced for reporter expression with doxycycline (Sigma cat no D9891) at a final concentration of 500 ng/mL. Luminescence was measured 72 h after plating using the Dual-Glo Luciferase Assay System (Promega cat no E2940) following the manufacturer's instructions. The Firefly Luciferase activity (normalized against its activity in a control well without test compound) was used to report LINE1 activity.

[4] = system: THP1-Dual™ KO-TREX1 cells; assay: CellTiter-Glo cell viability in THP1-Dual KO-TREX1 cells; settings: Homo sapiens, 120 h, CellTiter-Glo inhibition of cell viability, after five days of treatment, read-out: CTG IC50
Protocol: as §1, §2, §3
The remaining cells were assessed for cell viability by adding 30 μl of CellTiter-Glo (Promega, G9683) solution to each well, and placed on a shaker for 10 minutes at room temperature. Luminescence was detected on a plate reader, according to manufacturer's instructions. Percent inhibition of cell viability using CellTiter-Glo was calculated using the following analysis: (Average DMSO-Sample)/(Average DMSO-Average 20 μM control reagent)*100. The control reagent was Z-Leu-Leu-leucinal (see, for example, https://pubchem.ncbi.nlm.nib.gov/compound/462382).

[5] = THP-1, 120 h, inducers of IFN, in the presence of 1 μM 5-aza-2′-deoxycytidine, five days
[6] = THP-1, another experiment testing the same compound (not the one of Table 7)
[7] = THP-1, 120 h, in the presence of 1 μM 5-aza-2′-deoxycytidine, five days

T1 sequence (O00370 whole entry, looked up): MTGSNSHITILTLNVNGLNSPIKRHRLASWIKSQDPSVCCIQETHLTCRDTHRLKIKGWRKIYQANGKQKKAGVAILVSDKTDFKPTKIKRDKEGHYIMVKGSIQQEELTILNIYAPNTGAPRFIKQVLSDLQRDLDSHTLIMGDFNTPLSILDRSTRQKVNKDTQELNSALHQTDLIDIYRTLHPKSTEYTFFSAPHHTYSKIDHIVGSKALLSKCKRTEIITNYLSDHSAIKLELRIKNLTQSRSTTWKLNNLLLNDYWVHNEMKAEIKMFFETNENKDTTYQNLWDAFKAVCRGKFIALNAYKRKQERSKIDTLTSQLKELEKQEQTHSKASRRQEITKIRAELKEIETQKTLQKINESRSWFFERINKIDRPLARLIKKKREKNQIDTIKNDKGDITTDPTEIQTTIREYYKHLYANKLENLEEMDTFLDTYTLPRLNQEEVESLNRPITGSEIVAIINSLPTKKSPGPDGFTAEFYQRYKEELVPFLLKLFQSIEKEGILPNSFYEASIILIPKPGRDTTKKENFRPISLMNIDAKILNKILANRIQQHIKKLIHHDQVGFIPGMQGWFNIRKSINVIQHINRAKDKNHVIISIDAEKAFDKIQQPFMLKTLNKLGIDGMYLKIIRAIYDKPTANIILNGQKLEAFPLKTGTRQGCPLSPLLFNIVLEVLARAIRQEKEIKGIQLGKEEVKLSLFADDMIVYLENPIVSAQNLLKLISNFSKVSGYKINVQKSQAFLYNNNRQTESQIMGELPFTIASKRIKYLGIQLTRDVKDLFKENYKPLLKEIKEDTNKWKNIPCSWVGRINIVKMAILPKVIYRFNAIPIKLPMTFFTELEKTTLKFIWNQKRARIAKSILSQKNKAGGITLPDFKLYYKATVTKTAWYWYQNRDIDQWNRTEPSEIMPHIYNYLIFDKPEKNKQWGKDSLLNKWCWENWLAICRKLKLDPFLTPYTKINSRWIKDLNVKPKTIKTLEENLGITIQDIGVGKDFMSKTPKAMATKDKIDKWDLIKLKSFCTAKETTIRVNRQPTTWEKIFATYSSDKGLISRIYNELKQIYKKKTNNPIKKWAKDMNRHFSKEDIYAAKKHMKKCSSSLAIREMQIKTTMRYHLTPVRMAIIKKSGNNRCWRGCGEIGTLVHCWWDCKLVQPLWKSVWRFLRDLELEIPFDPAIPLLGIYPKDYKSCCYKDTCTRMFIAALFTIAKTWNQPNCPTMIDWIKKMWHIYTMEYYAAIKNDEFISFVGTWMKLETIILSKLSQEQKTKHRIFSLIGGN

| SMILES | IC50 [2] | IC50 [3] | EC50 [1, 5] | IC50 [4] | further results |
| --- | --- | --- | --- | --- | --- |
| C#C[C@]1(CO)O[C@@H](n2cnc3c(N)ncnc32)C[C@@H]1O [4′-ethynyl-2′-deoxyadenosine, reference compound] | 0.041 µM | ≤ 0.05 µM | – | – | change in IFN levels (figure) [1]: induction of IFN |
| Cc1cn([C@H]2C[C@H](N=[N+]=[N-])[C@@H](CO)O2)c(=O)[nH]c1=O [AZT (zidovudine), Zidovudine, reference compound] | > 100 µM | > 0.5 µM | – | – | – |
| C#C[C@]1(CO)O[C@@H](n2cnc3c(N)nc(Cl)nc32)C[C@@H]1O [Compound 8, 4′-ethynyl-2-chloro-2′-deoxyadenosine, reference compound] | 0.0083 µM | ≤ 0.05 µM | – | – | change in IFN levels (figure) [1]: induction of IFN |
| C#C[C@]1(CO[P@@](=O)(N[C@@H](C)C(=O)OC(C)C)Oc2ccccc2)O[C@@H](n2cnc3c(N)nc(Cl)nc32)C[C@@H]1O [Compound I-1, Isopropyl ((S)-(((2R,3S,5R)-5-(6-amino-2-chloro-9H-purin-9-yl)-2-ethynyl-3-hydroxytetrahydrofuran-2-yl)methoxy)(phenoxy)phosphoryl)-L-alaninate] | – | 0.05 to 0.5 µM and ≤ 0.05 µM | 1 to 10 µM | > 10 µM | Concentration at Max Induct. [1]: 10 µM; Maximum IFN Induction ([1]; five days): >> (values from 1.50 to 2.00) |
| C#C[C@]1(CO[P@@](=O)(N[C@@H](C)C(=O)OC(C)C)Oc2ccccc2)O[C@@H](n2cnc3c(N)nc(F)nc32)C[C@@H]1O [Compound I-18] | – | 0.05 to 0.5 µM | > 10 µM | – | – |
| C#C[C@]1(COP(=O)(O)N[C@@H](C)C(=O)OC(C)C)O[C@@H](n2cnc3c(N)nc(Cl)nc32)C[C@@H]1O [Compound I-47, [(2R,3S,5R)-5-(6-amino-2-chloropurin-9-yl)-2-ethynyl-3-hydroxyoxolan-2-yl]methoxy([(2S)-1-isopropoxy-1-oxopropan-2-yl]amino)phosphinic acid] | – | ≤ 0.05 µM | 1 to 10 µM | > 10 µM | EC50 ([1]; THP-1, experiment depicted in FIG. 11 / FIG. 12): < 1 µM; EC50 [1, 6]: > 10 µM; Concentration at Max Induct. [1]: 10 µM; Maximum IFN Induction ([1]; five days): >>> (values greater than 2.00) |
| C#C[C@]1(COP(=O)(O)N[C@H](C)C(=O)OC(C)C)O[C@@H](n2cnc3c(N)nc(Cl)nc32)C[C@@H]1O [Compound I-48] | – | ≤ 0.05 µM | 1 to 10 µM | > 10 µM | Concentration at Max Induct. [1]: 10 µM; Maximum IFN Induction ([1]; five days): > (values from 1.00 to less than 1.50) |
| C#C[C@]1(COP(=O)(O)N[C@@H](C)C(=O)OC(C)C)O[C@@H](n2cnc3c(N)nc(F)nc32)C[C@@H]1O [Compound I-49] | – | ≤ 0.05 µM | > 10 µM | – | – |
| C#C[C@]1(COP(=O)(O)N[C@H](C)C(=O)OC(C)C)O[C@@H](n2cnc3c(N)nc(F)nc32)C[C@@H]1O [Compound I-50] | – | 0.05 to 0.5 µM | – | – | – |
| C#C[C@]1(CO[P@](=O)(N[C@@H](C)C(=O)OC(C)C)Oc2ccccc2)O[C@@H](n2cnc3c(N)nc(F)nc32)C[C@@H]1O [Compound I-54] | – | ≤ 0.05 µM | < 1 µM | > 10 µM | EC50 [1, 6]: > 10 µM |
| C#C[C@]1(COP(=O)(N[C@@H](C)C(=O)OC(C)C)OCOC(=O)OC(C)C)O[C@@H](n2cnc3c(N)nc(Cl)nc32)C[C@@H]1O (stereo partly drawn) [I-14 and I-15, isopropyl (2S)-2-({[(2R,3S,5R)-5-(6-amino-2-chloropurin-9-yl)-2-ethynyl-3-hydroxyoxolan-2-yl]methoxy([(isopropoxycarbonyl)oxy]methoxy)phosphoryl}amino)propanoate] | – | > 0.5 µM | – | – | – |
| C#C[C@@]12COP(=O)(OC(C)C)O[C@H]1C[C@H](n1cnc3c(N)nc(Cl)nc31)O2 (some centres unmarked) [IV-1] | – | 0.05 to 0.5 µM | – | – | – |
| C#C[C@@]12COP(=O)(N[C@H](C)C(=O)OC(C)C)O[C@H]1C[C@H](n1cnc3c(N)nc(Cl)nc31)O2 (some centres unmarked) [IV-5] | – | 0.05 to 0.5 µM | > 10 µM | – | – |
| C#C[C@@]12COP(=O)(N[C@@H](C)C(=O)OC(C)C)O[C@H]1C[C@H](n1cnc3c(N)nc(Cl)nc31)O2 (stereo partly drawn) [IV-6, isopropyl (2S)-2-{[(4aR,6R,7aS)-6-(6-amino-2-chloropurin-9-yl)-4a-ethynyl-2-oxo-tetrahydro-2lambda5-furo[3,2-d][1,3,2]dioxaphosphinin-2-yl]amino}propanoate] | – | 0.05 to 0.5 µM | – | 3.1 µM | IC50 [1, 7]: < 1 µM |
| C#C[C@@]12COP(=O)(OC(C)C)O[C@H]1C[C@H](n1cnc3c(N)nc(F)nc31)O2 (some centres unmarked) [IV-10] | – | ≤ 0.05 µM | – | – | – |
| C#C[C@@]12COP(=O)(N[C@H](C)C(=O)OC(C)C)O[C@H]1C[C@H](n1cnc3c(N)nc(F)nc31)O2 (some centres unmarked) [IV-12] | – | 0.05 to 0.5 µM | – | > 10 µM | IC50 [1, 7]: 1 to 5 µM |
| C#C[C@@]12COP(=O)(N[C@@H](C)C(=O)OC(C)C)O[C@H]1C[C@H](n1cnc3c(N)nc(F)nc31)O2 (some centres unmarked) [IV-13] | – | 0.05 to 0.5 µM | – | 2.5 µM | IC50 [1, 7]: < 1 µM |
| Nc1ccn([C@H]2CO[C@@H](CO)S2)c(=O)n1 [apricitabine] | > 100 µM | – | – | – | – |
| Nc1ccn([C@@H]2CS[C@H](CO)O2)c(=O)n1 [lamivudine (3TC), Lamivudine, reference compound] | > 100 µM | > 0.5 µM | – | – | – |
| Nc1nc(=O)c2ncn([C@@H]3C[C@H](CO)[C@H]3CO)c2[nH]1 [lobucavir, reference compound] | > 100 µM | > 0.5 µM | – | – | – |
